Measured values taken from US20240049725A1, “CO[…] OTHER IN[…] AND USES THEREOF” (SYNGENTA CROP PROTECTION AG, priority 2020, published 2024).
Positions of bridges follow the written chain, without caps; N, C: chain ends. Residues, ends and D or L forms follow the SMILES beside them.

Tests used:
Spodoptera littoralis L1 = assay: leaf disc spray test on Gossypium hirsutum, mortality of Spodoptera littoralis L1 larvae; assay type: in vivo; details: 10000 ppm, Abbott-corrected
Description: (§1) Gossypium hirsutum leaf discs with a 5 cm diameter were cut out and placed in a Petri dish which was prepared with 3 filter paper and 800 μl water. 100 μl of test solution was applied on the lower surface by spraying and dried to air. Next, the leaf was flipped and 100 μl of test solution was applied on the upper surface by spraying and dried to air. The leaf was infested with 10 L1 larvae of Spodoptera littoralis, after which the dish was closed with a cotton filter and a plastic lid. The Petri dish was placed in a climate chamber at a temperature of 25° C., a relative humidity of 65% and with no artificial light cycle. Two days after infestation 200 μl water was added to the Petri dish. Four days after infestation 500 μl water was added to the Petri dish. Three Petri dishes were assessed per treatment.

Plutella xylostella L1 = assay: leaf disc spray test on Brassica chinensis, mortality of Plutella xylostella L1 larvae; assay type: in vivo; details: Abbott-corrected
Description: as §1, with “Brassica chinensis leaf discs” for “Gossypium hirsutum leaf discs”, “The leaf 3 was infested” for “The leaf was infested”, “larvae of Plutella xylostella, after which” for “larvae of Spodoptera littoralis, after which”, “light cycle. Four days” for “light cycle. Two days after infestation 200 μl water was added to the Petri dish. Four days”, “after infestation 150 μl water” for “after infestation 500 μl water”

Plutella xylostella L3 = assay: leaf disc spray test on Brassica chinensis, mortality of Plutella xylostella L3 larvae; assay type: in vivo; details: Abbott-corrected
Description: as §1, with “Brassica chinensis” for “Gossypium hirsutum”, “L3” for “L1”, “larvae (6-7 days old)” for “larvae”, “Plutella xylostella,” for “Spodoptera littoralis,”, “cycle.” for “cycle. Two days after infestation 200 μl water was added to the Petri dish.”, “150” for “500”

Cydia pomonella L1 = assay: artificial diet test in 24-well plate, mortality of Cydia pomonella L1 larvae; assay type: in vivo; details: 10000 ppm; Table E; Abbott-corrected
Description: An artificial diet was prepared. 1.5 ml of artificial diet was applied in a well of a 24-well plate followed by 50 μl of test solution by spraying. The well-plate was infested with 1 L1 larva of Cydia pomonella per well, after which the plate was closed with a carton filter and a metal lid. The 24-well plate was placed in a climate chamber at a temperature of 25° C., a relative humidity of 65% and with no artificial light cycle. Five wells (replicates) were assessed per treatment.

[1] = test system: larvae of Helicoverpa armigera; details: Jennings et al, 2005; cited from earlier work
[2] = test system: crustaceans, cockroaches, blow fly larvae and Helicoverpa armigera; details: in vivo; cited from earlier work

In the case of `CC(C)C[C@@H]1NC(=O)CNC(=O)[C@H](CC(N)=O)NC(=O)[C@H](CCCNC(=N)N)NC(=O)[C@H]([C@@H](C)O)NC(=O)[C@@H]2CSSC[C@@H]3NC(=O)[C@H]([C@@H](C)O)NC(=O)CNC(=O)CNC(=O)[C@H](C(C)C)NC(=O)[C@@H]4CSSC[C@H](NC(=O)[C@H]([C@@H](C)O)NC(=O)[C@H](CSSC[C@H](NC(=O)[C@H](C(C)C)NC(=O)[C@@H]5CCCN5C1=O)C(=O)NCC(=O)N[C@@H](CCC(=O)O)C(=O)N[C@@H]([C@@H](C)O)C(=O)N4)NC(=O)CNC(=O)[C@@H]1CCCN1C(=O)[C@H]([C@@H](C)O)NC(=O)[C@H](CC(N)=O)NC3=O)C(=O)N[C@@H](CO)C(=O)N[C@@H](Cc1c[nH]c3ccccc13)C(=O)N1CCC[C@H]1C(=O)N[C@@H](C(C)C)C(=O)N2` [SEQ ID NO: 1 (kB1), Kalata B1], the “observed mortality of Spodoptera littoralis L1, 1 d after infestation” value (Spodoptera littoralis L1; Table A) is reported as 0%, the “observed mortality of Spodoptera littoralis L1, 2 d after infestation” value (Spodoptera littoralis L1; Table A) is reported as 35% and the “observed mortality of Spodoptera littoralis L1, 3 d after infestation” value (Spodoptera littoralis L1; Table A) is reported as 29%. The “observed mortality of Spodoptera littoralis L1, 6 d after infestation” value (Spodoptera littoralis L1; Table A) was 32%, the “observed mortality of Spodoptera littoralis L1, 1 d after infestation” value (Spodoptera littoralis L1; Table G) was 5% and the “observed mortality of Spodoptera littoralis L1, 2 d after infestation” value (Spodoptera littoralis L1; Table G) was 25%. The “observed mortality of Spodoptera littoralis L1, 3 d after infestation” value (Spodoptera littoralis L1; Table G) was 36%, the “observed mortality of Plutella xylostella L1, 1 d after infestation” value (Plutella xylostella L1; 625 ppm, Table B1) was 0% and the “observed mortality of Plutella xylostella L1, 2 d after infestation” value (Plutella xylostella L1; 625 ppm, Table B1) was 0%. The “observed mortality of Plutella xylostella L1, 3 d after infestation” value (Plutella xylostella L1; 625 ppm, Table B1) was 3%, the “observed mortality of Plutella xylostella L1, 4 d after infestation” value (Plutella xylostella L1; 625 ppm, Table B1) was 14% and the “observed mortality of Plutella xylostella L1, 7 d after infestation” value (Plutella xylostella L1; 625 ppm, Table B1) was 17%. The “observed mortality of Plutella xylostella L1, 1 d after infestation” value (Plutella xylostella L1; 625 ppm, Table C) was 0%, the “observed mortality of Plutella xylostella L1, 2 d after infestation” value (Plutella xylostella L1; 625 ppm, Table C) was 11% and the “observed mortality of Plutella xylostella L1, 3 d after infestation” value (Plutella xylostella L1; 625 ppm, Table C) was 9%. For the same compound, the “observed mortality of Plutella xylostella L1, 4 d after infestation” value (Plutella xylostella L1; 625 ppm, Table C) was 22%, the “observed mortality of Plutella xylostella L1, 6 d after infestation” value (Plutella xylostella L1; 625 ppm, Table C) was 20% and the “observed mortality of Plutella xylostella L3, 1 d after infestation” value (Plutella xylostella L3; 2500 ppm, Table D) was 0%. The “observed mortality of Plutella xylostella L3, 2 d after infestation” value (Plutella xylostella L3; 2500 ppm, Table D) was 0%, the “observed mortality of Plutella xylostella L3, 3 d after infestation” value (Plutella xylostella L3; 2500 ppm, Table D) was 3% and the “observed mortality of Plutella xylostella L3, 4 d after infestation” value (Plutella xylostella L3; 2500 ppm, Table D) was 20%. The “observed mortality of Plutella xylostella L3, 1 d after infestation” value (Plutella xylostella L3; 5000 ppm, Table D) was 0%, the “observed mortality of Plutella xylostella L3, 2 d after infestation” value (Plutella xylostella L3; 5000 ppm, Table D) was 0% and the “observed mortality of Plutella xylostella L3, 3 d after infestation” value (Plutella xylostella L3; 5000 ppm, Table D) was 3%. The “observed mortality of Plutella xylostella L3, 4 d after infestation” value (Plutella xylostella L3; 5000 ppm, Table D) was 37%, the “observed mortality of Plutella xylostella L3, 1 d after infestation” value (Plutella xylostella L3; 5000 ppm, Table F) was 0% and the “observed mortality of Plutella xylostella L3, 2 d after infestation” value (Plutella xylostella L3; 5000 ppm, Table F) was 0%. The “observed mortality of Plutella xylostella L3, 3 d after infestation” value (Plutella xylostella L3; 5000 ppm, Table F) was 22%, the “observed mortality of Cydia pomonella L1, 1 d after infestation” value (Cydia pomonella L1) was 20% and the “observed mortality of Cydia pomonella L1, 2 d after infestation” value (Cydia pomonella L1) was 20%. The “observed mortality of Cydia pomonella L1, 3 d after infestation” value (Cydia pomonella L1) was 20%, the “observed mortality of Cydia pomonella L1, 4 d after infestation” value (Cydia pomonella L1) was 20% and the “observed mortality of Cydia pomonella L1, 7 d after infestation” value (Cydia pomonella L1) was 20%. The “insecticidal activity against the larvae of Helicoverpa armigera” value [1] was “potent insecticidal activity”.

In the case of `CC[C@H](C)[C@@H]1NC(=O)[C@@H]2CCCN2C(=O)[C@H](Cc2c[nH]c3ccccc23)NC(=O)[C@H]([C@@H](C)O)NC(=O)[C@@H]2CSSC[C@@H]3NC(=O)[C@H]([C@@H](C)O)NC(=O)[C@H](CCC(=O)O)NC(=O)CNC(=O)[C@@H]4CSSC[C@H](NC(=O)CNC(=O)[C@@H]5CCCN5C(=O)[C@H]([C@@H](C)O)NC(=O)[C@H](CC(N)=O)NC(=O)[C@H](CSSC[C@H](NC1=O)C(=O)N[C@@H]([C@@H](C)O)C(=O)N[C@@H](CCCNC(=N)N)C(=O)N[C@@H](CC(=O)O)C(=O)NCC(=O)N[C@@H](CC(C)C)C(=O)N1CCC[C@H]1C(=O)N[C@@H](C(C)C)C(=O)N4)NC(=O)[C@H]([C@@H](C)O)NC(=O)CNC(=O)CNC(=O)[C@H](Cc1ccccc1)NC3=O)C(=O)N[C@@H](CO)C(=O)N2` [SEQ ID NO: 2 (kB2), Kalata B2] (cyclo(CFGGTCNTPGCSCTWPICTRDGLPVCGET); disulfide 1-13, 6-18, 11-26 (inferred); ring closure inferred), the “observed mortality of Plutella xylostella L1, 1 d after infestation” value (Plutella xylostella L1; 157 ppm, Table B2) is reported as 0%, the “observed mortality of Plutella xylostella L1, 2 d after infestation” value (Plutella xylostella L1; 157 ppm, Table B2) is reported as 0% and the “observed mortality of Plutella xylostella L1, 3 d after infestation” value (Plutella xylostella L1; 157 ppm, Table B2) is reported as 0%. The “observed mortality of Plutella xylostella L1, 4 d after infestation” value (Plutella xylostella L1; 157 ppm, Table B2) was 0%, the “observed mortality of Plutella xylostella L1, 7 d after infestation” value (Plutella xylostella L1; 157 ppm, Table B2) was 0% and the “observed mortality of Plutella xylostella L1, 1 d after infestation” value (Plutella xylostella L1; 625 ppm, Table C) was 0%. For the same compound, the “observed mortality of Plutella xylostella L1, 2 d after infestation” value (Plutella xylostella L1; 625 ppm, Table C) was 0%, the “observed mortality of Plutella xylostella L1, 3 d after infestation” value (Plutella xylostella L1; 625 ppm, Table C) was 4% and the “observed mortality of Plutella xylostella L1, 4 d after infestation” value (Plutella xylostella L1; 625 ppm, Table C) was 4%. The “observed mortality of Plutella xylostella L1, 6 d after infestation” value (Plutella xylostella L1; 625 ppm, Table C) was 0% and the “insecticidal activity against the larvae of Helicoverpa armigera” value [1] was “potent insecticidal activity”.

In the case of `CC(C)[C@H](NC(=O)[C@H](CCCCN)NC(=O)[C@@H]1CCCN1C(=O)CNC(=O)[C@H](CO)NC(=O)[C@@H]1CSSC[C@@H]2NC(=O)[C@@H]3CCCN3C(=O)[C@@H]3CSSC[C@H](NC(=O)CNC(=O)CNC(=O)[C@H](Cc4c[nH]c5ccccc45)NC(=O)[C@H](Cc4ccc(O)cc4)NC2=O)C(=O)N2CCC[C@H]2C(=O)N[C@@H](Cc2c[nH]c4ccccc24)C(=O)NCC(=O)N[C@@H](CCC(N)=O)C(=O)N[C@@H](CC(N)=O)C(=O)N[C@@H](CSSC[C@H](NC(=O)[C@H](CO)NC(=O)[C@@H](N)CCCNC(=N)N)C(=O)N3)C(=O)N[C@@H](Cc2ccc(O)cc2)C(=O)N2CCC[C@H]2C(=O)N[C@@H](CCC(=O)O)C(=O)NCC(=O)N1)C(=O)O` [SEQ ID NO: 4 (Av3), Av3], the “toxicity to crustaceans, cockroaches, blow fly larvae and Helicoverpa armigera” value [2] is listed as “toxic”.

For `CC(C)C[C@@H]1NC(=O)CNC(=O)[C@H](CC(N)=O)NC(=O)[C@H](CCCNC(=N)N)NC(=O)[C@H]([C@@H](C)O)NC(=O)[C@@H]2CSSC[C@@H]3NC(=O)[C@H]([C@@H](C)O)NC(=O)CNC(=O)CNC(=O)[C@H](C(C)C)NC(=O)[C@@H]4CSSC[C@H](NC(=O)[C@H]([C@@H](C)O)NC(=O)[C@H](CSSC[C@H](NC(=O)[C@H](C(C)C)NC(=O)[C@@H]5CCCN5C1=O)C(=O)NCC(=O)N[C@@H](CCC(=O)O)C(=O)N[C@@H]([C@@H](C)O)C(=O)N4)NC(=O)CNC(=O)[C@@H]1CCCN1C(=O)[C@H]([C@@H](C)O)NC(=O)[C@H](CC(N)=O)NC3=O)C(=O)N[C@@H](CO)C(=O)N[C@@H](Cc1c[nH]c3ccccc13)C(=O)N1CCC[C@H]1C(=O)N[C@@H](CCCCN)C(=O)N2` [SEQ ID NO: 6 (kB1[V25K]), Mutated kB1 (kB1[V25K])] (cyclo(CGETCVGGTCNTPGCTCSWPKCTRNGLPV); disulfide 1-15, 5-17, 10-22 (inferred); ring closure inferred), the “observed mortality of Plutella xylostella L1, 1 d after infestation” value (Plutella xylostella L1; 625 ppm, Table C) was 0%, the “observed mortality of Plutella xylostella L1, 2 d after infestation” value (Plutella xylostella L1; 625 ppm, Table C) was 0% and the “observed mortality of Plutella xylostella L1, 3 d after infestation” value (Plutella xylostella L1; 625 ppm, Table C) was 0%. The “observed mortality of Plutella xylostella L1, 4 d after infestation” value (Plutella xylostella L1; 625 ppm, Table C) was 0% and the “observed mortality of Plutella xylostella L1, 6 d after infestation” value (Plutella xylostella L1; 625 ppm, Table C) was 0%.
